This note sets out measurements from patent publication US9616046B2, “Hepatocyte-proliferating agent” (JAPAN BIO PRODUCTS CO., LTD., priority 2013, dated 2017).

The test system of this series is rat normal hepatocytes. As to the kind of experiment: Intracellular signaling pathway analysis using kinase inhibitors (DNA synthesis activity, BrdU ELISA). As to conditions: PARI-S001 (pyroglutamic acid 10 mM) plus inhibitor; PD98059, SB203580, LY294002 6.3-50 μM, rapamycin 1.6-12.5 ng/mL; 0.5% DMSO; 22 hours. In kind it is cell-based. Here is the method: The intracellular signaling pathway analysis was carried out in order to clarify through which intracellular signaling pathway the PARI-S001 promoted cell proliferation activity. PARI-S001 and various kinase inhibitors were used to measure the cell proliferation activity. The measurement method used was the same method as that in the above-described <Normal Cell Proliferation Test>. The rat normal hepatocytes were cultured for 3 hours after seeding, followed by replacement with the medium to which […] (pyroglutamic acid concentration: 10 mM) and each kinase inhibitor were simultaneously added. The concentration of rapamycin (an inhibitor of mTOR) was adjusted to a final concentration of 1.6 ng/mL, 3.1 ng/mL, 6.3 ng/mL, or 12.5 ng/mL. The concentration of PD98059 (an inhibitor of MEK1 and MEK2), SB203580 (an inhibitor of p38 of MAPK), and LY294002 (an inhibitor of PI3K) was adjusted to a final concentration of 6.3 μM, 12.5 μM, 25 μM, or 50 μM. To promote the dissolution of each kinase inhibitor, dimethyl sulfoxide (hereinafter abbreviated as “DMSO”) was added to a final concentration of 0.5% to the medium. Similarly, DMSO was added to a final concentration of 0.5% to the control. Culture was further carried out for 22 hours after medium replacement, followed by evaluating DNA synthesis activity using a Cell Proliferation ELISA BrdU (colorimetric) Kit (Roche Co., Ltd.).
Background: Uptake of a labelled nucleoside into DNA is a usual measure of proliferation.

Turning to `COc1cccc(-c2cc(=O)c3ccccc3o2)c1N` [PD98059], the “DNA synthesis activity in rat normal hepatocytes on simultaneous addition of PARI-S001 and kinase inhibitor” value is reported as “suppress DNA synthesis activity in the rat normal hepatocytes depending on the concentration of the inhibitor”.
